molecular target: thymidine phosphorylase (Escherichia coli, UniProt P07650); assay type: biochemical; settings: thymidine phosphorylase inhibition versus standard drug (7-deazaxanthine)
Sequence (P07650 whole entry): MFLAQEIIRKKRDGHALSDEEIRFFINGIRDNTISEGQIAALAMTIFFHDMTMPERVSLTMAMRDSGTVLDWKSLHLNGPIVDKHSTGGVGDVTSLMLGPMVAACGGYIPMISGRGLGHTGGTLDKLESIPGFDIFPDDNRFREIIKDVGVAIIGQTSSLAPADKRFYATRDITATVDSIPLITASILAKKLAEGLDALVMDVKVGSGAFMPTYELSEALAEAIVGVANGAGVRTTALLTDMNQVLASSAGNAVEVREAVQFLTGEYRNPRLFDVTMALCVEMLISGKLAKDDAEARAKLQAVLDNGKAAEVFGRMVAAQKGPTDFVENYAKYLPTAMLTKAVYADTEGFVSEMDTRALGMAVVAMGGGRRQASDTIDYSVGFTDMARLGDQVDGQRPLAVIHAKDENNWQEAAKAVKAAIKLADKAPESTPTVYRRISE

SMILES	potency compared with standard drug
C(=N\c1nnc(-c2cccc(-c3nnc(/N=C/c4ccc(-c5ccccc5)cc4)s3)n2)s1)/c1ccc(-c2ccccc2)cc1 [4e, (1E,1'E)-N,N'-(pyridine-2,6-diylbis(1,3,4-thiadiazole-5,2-diyl))bis(1-([1,1'-biphenyl]-4-yl)methanimine)]	less potent than the standard drug
CN(C)c1ccc(/C=N/c2nnc(-c3cccc(-c4nnc(/N=C/c5ccc(N(C)C)cc5)s4)n3)s2)cc1 [4i, 4,4'-((1E,1'E)-((pyridine-2,6-diylbis(1,3,4-thiadiazole-5,2-diyl))bis(azanylylidene))bis(methanylylidene))bis(N,N-dimethylaniline)]	less potent than the standard drug
Cc1ccc(-c2ccc(/C=N/c3nnc(-c4cccc(-c5nnc(/N=C/c6ccc(-c7ccc(C)cc7)cc6)s5)n4)s3)cc2)cc1 [4n, (1E,1'E)-N,N'-(pyridine-2,6-diylbis(1,3,4-thiadiazole-5,2-diyl))bis(1-(4'-methyl-[1,1'-biphenyl]-4-yl)methanimine)]	less potent than the standard drug
